Patent publication US20230295118A1 (EnhancedBio Inc., priority 2022, published 2023)
Like-named read-outs stand apart in the source and are kept apart here.

Assays:
Assay type in all cases: cell-based
[1] = target: T1, CDK6 (Homo sapiens, UniProt Q00534); assay: CDK6 degradation (DC50, Dmax)
T1 construct: endogenous in cells

[2] = test system: mantle cell lymphoma cell (Mino or JeKo-1); assay: Antiproliferative effect, MTS cell viability assay
How it was run: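 MTS read-out (formazan absorbance at 490 nm) after 72 h exposure of Mino cells to 0–1 μM compound (0.0001, 0.001, 0.01, 0.1, 1 μM). Palbociclib and abemaciclib served as positive controls.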

[3] = target: T2, CDK4 (Homo sapiens, UniProt P11802); assay: CDK4 degradation (DC50, Dmax)
T2 construct: endogenous in cells

[4] = 72 h, mantle cell lymphoma cell (Mino or JeKo-1), MTS assay, read-out: IC50 (anti-proliferation)

T1 sequence (Q00534 whole entry): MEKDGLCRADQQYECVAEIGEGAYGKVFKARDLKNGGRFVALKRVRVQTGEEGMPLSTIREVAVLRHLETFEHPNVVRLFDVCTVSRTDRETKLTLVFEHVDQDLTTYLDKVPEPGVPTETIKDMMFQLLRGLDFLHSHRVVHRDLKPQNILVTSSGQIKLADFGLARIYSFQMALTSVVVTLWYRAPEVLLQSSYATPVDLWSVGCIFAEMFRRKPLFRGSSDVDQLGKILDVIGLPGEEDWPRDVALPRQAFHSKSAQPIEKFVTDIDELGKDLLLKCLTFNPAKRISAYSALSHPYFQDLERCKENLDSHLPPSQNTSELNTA
T2 sequence (P11802 whole entry): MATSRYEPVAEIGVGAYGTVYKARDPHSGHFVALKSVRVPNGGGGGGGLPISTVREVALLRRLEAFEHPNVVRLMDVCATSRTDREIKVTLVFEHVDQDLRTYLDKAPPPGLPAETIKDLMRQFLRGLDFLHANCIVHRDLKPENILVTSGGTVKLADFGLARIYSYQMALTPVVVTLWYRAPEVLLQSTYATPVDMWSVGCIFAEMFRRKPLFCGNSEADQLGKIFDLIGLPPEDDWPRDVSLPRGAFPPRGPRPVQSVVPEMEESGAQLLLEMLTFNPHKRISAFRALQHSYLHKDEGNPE

## Cc1nc2c(F)cc(-c3nc(Nc4ccc(CN5CCN(CCCNc6ccc(N7CCC(=O)NC7=O)cc6)CC5)cn4)ncc3F)cc2n1C(C)C [Compound 107, 1-(4-((3-(4-((6-((5-fluoro-4-(4-fluoro-1-isopropyl-2-methyl-1H-benzo[d]imidazol-6-yl)pyrimidin-2-yl)amino)pyridin-3-yl)methyl)piperazin-1-yl)propyl)amino)phenyl)dihydro-pyrimidine-2,4 (1H,3H)-dione]
[1]
  DC50: < 0.05 µM
  Dmax: > 80%
[2]; [4]
  IC50: < 0.05 µM
[3]
  DC50: < 0.05 µM
  Dmax: > 80%

## CC(=O)c1c(C)c2cnc(Nc3ccc(N4CCN(CC5CCN(C(=O)N6CCN(c7ccc8c(c7)C(=O)N(C7CCC(=O)NC7=O)C8=O)CC6)CC5)CC4)cn3)nc2n(C2CCCC2)c1=O (centres unmarked) [Compound 31, 5-(4-(4-((4-(6-((6-acetyl-8-cyclopentyl-5-methyl-7-oxo-7,8-dihydropyrido[2,3-d]pyrimidin-2-yl)amino)pyridin-3-yl)piperazin-1-yl)methyl)piperidine-1-carbonyl)piperazin-1-yl)-2-(2,6-dioxopiperidin-3-yl)isoindoline-1,3-dione]
[1]
  DC50: 0.05 to 0.2 µM
  Dmax: > 80%
[2]; mantle cell lymphoma cell (Mino or JeKo-1); MTS assay, 72 h; read-out: IC50 (anti-proliferation)
  IC50: < 0.05 µM
[3]
  DC50: 0.05 to 0.2 µM
  Dmax: > 80%

## CC(=O)c1c(C)c2cnc(Nc3ccc(N4CCN(CC5CCN(C(=O)N6CCC(c7ccc8c(c7)CN(C7CCC(=O)NC7=O)C8=O)CC6)CC5)CC4)cn3)nc2n(C2CCCC2)c1=O (centres unmarked) [Compound 34]
[1]
  DC50: > 0.2 µM
  Dmax: > 50%
[2]; [4]
  IC50: > 0.2 µM
[3]
  DC50: > 0.2 µM
  Dmax: > 50%

## CC(=O)c1c(C)c2cnc(Nc3ccc(N4CCN(C(=O)C5CCN(c6ccc7c(c6)CN(C6CCC(=O)NC6=O)C7=O)CC5)CC4)cn3)nc2n(C2CCCC2)c1=O (centres unmarked) [Compound 115, 3-(5-(4-(4-(6-((6-acetyl-8-cyclopentyl-5-methyl-7-oxo-7,8-dihydropyrido[2,3-d]pyrimidin-2-yl)amino)pyridin-3-yl)piperazine-1-carbonyl)piperidin-1-yl)-1-oxoisoindolin-2-yl)piperidine-2,6-dione]
[1]
  DC50: 0.05 to 0.2 µM
  Dmax: > 60%
[2]; [4]
  IC50: < 0.05 µM
[3]
  DC50: 0.05 to 0.2 µM
  Dmax: > 60%

## CC(=O)c1c(C)c2cnc(Nc3ccc(N4CCN(C(=O)N5CCN(CCN6CCC(c7ccc8c(c7)C(=O)N(C7CCC(=O)NC7=O)C8=O)CC6)CC5)CC4)cn3)nc2n(C2CCCC2)c1=O (centres unmarked) [Compound 27, 5-(1-(2-(4-(4-(6-((6-acetyl-8-cyclopentyl-5-methyl-7-oxo-7,8-dihydropyrido[2,3-d]pyrimidin-2-yl)amino)pyridin-3-yl)piperazine-1-carbonyl)piperazin-1-yl)ethyl)piperidin-4-yl)-2-(2,6-dioxopiperidin-3-yl)isoindoline-1,3-dione]
[1]
  DC50: > 0.2 µM
  Dmax: > 60%
[2]; [4]
  IC50: 0.05 to 0.2 µM
[3]
  DC50: > 0.2 µM
  Dmax: > 60%

## Cc1nc2c(F)cc(-c3nc(Nc4ccc(CN5CCN(CC6CN(c7ccc(NC8CCC(=O)NC8=O)cc7)C6)CC5)cn4)ncc3F)cc2n1C(C)C (centres unmarked) [Compound 134]
[1]
  DC50: < 0.05 µM
  Dmax: > 80%
[2]; [4]
  IC50: < 0.05 µM
[3]
  DC50: < 0.05 µM
  Dmax: > 80%

## CC(=O)c1c(C)c2cnc(Nc3ccc(N4CCN(CCCNc5ccc6c(c5)CN(C5CCC(=O)NC5=O)C6=O)CC4)cn3)nc2n(C2CCCC2)c1=O (centres unmarked) [Compound 50, 3-(5-((3-(4-(6-((6-acetyl-8-cyclopentyl-5-methyl-7-oxo-7,8-dihydropyrido[2,3-d]pyrimidin-2-yl)amino)pyridin-3-yl)piperazin-1-yl)propyl)amino)-1-oxoisoindolin-2-yl)piperidine-2,6-dione]
[1]
  DC50: < 0.05 µM
  Dmax: > 80%
[2]; [4]
  IC50: < 0.05 µM
[2]; Mino cells; 0-1 μM; 72 h; result in words
  inhibition of cell proliferation of Mino cells: dose-dependent inhibition of cell proliferation
[3]
  DC50: < 0.05 µM
  Dmax: > 80%

## CC(=O)c1c(C)c2cnc(Nc3ccc(N4CCN(CC5CN(c6ccc(N7CCC(=O)NC7=O)cc6)C5)CC4)cn3)nc2n(C2CCCC2)c1=O [Compound 111, 1-(4-(3-((4-(6-((6-acetyl-8-cyclopentyl-5-methyl-7-oxo-7,8-dihydropyrido[2,3-d]pyrimidin-2-yl)amino)pyridin-3-yl)piperazin-1-yl)methyl)azetidin-1-yl)phenyl) dihydropyrimidine-2,4(1H,3H)-dione]
[1]
  DC50: < 0.05 µM
  Dmax: > 80%
[2]; [4]
  IC50: < 0.05 µM
[3]
  DC50: < 0.05 µM
  Dmax: > 80%

## Cc1nc2c(F)cc(-c3nc(Nc4ccc(CC5CCN(C6CCN(c7ccc8c(c7)C(=O)N(C7CCC(=O)NC7=O)C8=O)CC6)CC5)cn4)ncc3F)cc2n1C(C)C (centres unmarked) [Compound 169, 2-(2,6-dioxopiperidin-3-yl)-5-(4-((6-((5-fluoro-4-(4-fluoro-1-isopropyl-2-methyl-1H-benzo[d]imidazol-6-yl)pyrimidin-2-yl)amino)pyridin-3-yl)methyl)-[1,4′-bipiperidin]-1′-yl)isoindoline-1,3-dione]
[1]
  DC50: 0.05 to 0.2 µM
  Dmax: > 80%
[2]; [4]
  IC50: < 0.05 µM
[3]
  DC50: 0.05 to 0.2 µM
  Dmax: > 80%

## CC(=O)c1c(C)c2cnc(Nc3ccc(N4CCN(C(=O)N5CCC(C6CCN(c7ccc8c(c7)C(=O)N(C7CCC(=O)NC7=O)C8=O)CC6)CC5)CC4)cn3)nc2n(C2CCCC2)c1=O (centres unmarked) [Compound 9, 5-(1′-(4-(6-((6-acetyl-8-cyclopentyl-5-methyl-7-oxo-7,8-dihydropyrido[2,3-d]pyrimidin-2-yl)amino)pyridin-3-yl)piperazine-1-carbonyl)-[4,4′-bipiperidin]-1-yl)-2-(2,6-dioxopiperidin-3-yl)isoindoline-1,3-dione]
[1]
  DC50: > 0.2 µM
  Dmax: > 50%
[2]; [4]
  IC50: > 0.2 µM
[3]
  DC50: > 0.2 µM
  Dmax: > 50%

## Cc1nc2c(F)cc(-c3nc(Nc4ccc(CN5CCN(C(=O)C6CCN(c7ccc8c(c7)CN(C7CCC(=O)NC7=O)C8=O)CC6)CC5)cn4)ncc3F)cc2n1C(C)C (centres unmarked) [Compound 154]
[1]
  DC50: > 0.2 µM
  Dmax: > 60%
[2]; [4]
  IC50: 0.05 to 0.2 µM
[3]
  DC50: 0.05 to 0.2 µM
  Dmax: > 60%

## CC(=O)c1c(C)c2cnc(Nc3ccc(N4CCN(C5CCN(c6ccc(N7CCC(=O)NC7=O)cc6)CC5)CC4)cn3)nc2n(C2CCCC2)c1=O [Compound 113, 1-(4-(4-(4-(6-((6-acetyl-8-cyclopentyl-5-methyl-7-oxo-7,8-dibydropyrido[2,3-d]pyrimidin-2-yl)amino)pyridin-3-yl)piperazin-1-yl)piperidin-1-yi)phenyl) dihydropyrimidine-2,4(1H,3H)-dione]
[1]
  DC50: < 0.05 µM
  Dmax: > 80%
[2]; [4]
  IC50: < 0.05 µM
[3]
  DC50: 0.05 to 0.2 µM
  Dmax: > 80%

## CC(=O)c1c(C)c2cnc(Nc3ccc(N4CCN(CCN(C)c5ccc6c(c5)CN(C5CCC(=O)NC5=O)C6=O)CC4)cn3)nc2n(C2CCCC2)c1=O (centres unmarked) [Compound 56, 3-(5-((2-(4-(6-((6-acetyl-8-cyclopentyl-5-methyl-7-oxo-7,8-dihydropyrido[2,3-d]pyrimidin-2-yl)amino)pyridin-3-yl)piperazin-1-yl)ethyl)(methyl)amino)-1-oxoisoindolin-2-yl)piperidine-2,6-dione]
[1]
  DC50: 0.05 to 0.2 µM
  Dmax: > 60%
[2]; [4]
  IC50: 0.05 to 0.2 µM
[3]
  DC50: 0.05 to 0.2 µM
  Dmax: > 60%

## CC(=O)c1c(C)c2cnc(Nc3ccc(N4CCN(C5CCN(C(=O)N6CCC(CCN7CCN(c8ccc9c(c8)C(=O)N(C8CCC(=O)NC8=O)C9=O)CC7)CC6)CC5)CC4)cn3)nc2n(C2CCCC2)c1=O (centres unmarked) [Compound 87, 5-(4-(2-(1-(4-(4-(6-((6-acetyl-8-cyclopentyl-5-methyl-7-oxo-7,8-dihydropyrido[2,3-d]pyrimidin-2-yl)amino)pyridin-3-yl)piperazin-1-yl)piperidine-1-carbonyl)piperidin-4-yl)ethyl)piperazin-1-yl)-2-(2,6-dioxopiperidin-3-yl) isoindoline-1,3-dione]
[1]
  DC50: 0.05 to 0.2 µM
  Dmax: > 60%
[2]; [4]
  IC50: 0.05 to 0.2 µM
[3]
  DC50: 0.05 to 0.2 µM
  Dmax: > 60%

## CC(=O)c1c(C)c2cnc(Nc3ccc(N4CCN(CCCNc5ccc(N6CCC(=O)NC6=O)cc5)CC4)cn3)nc2n(C2CCCC2)c1=O [Compound 105, 1-(4-((3-(4-(6-((6-acetyl-8-cyclopentyl-5-methyl-7-oxo-7,8-dihydropyrido[2,3-d]pyrimidin-2-yl)amino)pyridin-3-yl)piperazin-1-yl)propyl)amino)phenyl)dihydro-pyrimidine-2,4 (1H,3H)-dione]
[1]
  DC50: < 0.05 µM
  Dmax: > 80%
[2]; [4]
  IC50: < 0.05 µM
[3]
  DC50: < 0.05 µM
  Dmax: > 80%

## Cc1nc2c(F)cc(-c3nc(Nc4ccc(CN5CCN(C(=O)C6CCN(c7ccc(NC8CCC(=O)NC8=O)cc7)CC6)CC5)cn4)ncc3F)cc2n1C(C)C (centres unmarked) [Compound 156, 3-((4-(4-(4-((6-((5-fluoro-4-(4-fluoro-1-isopropyl-2-methyl-1H-benzo[d]imidazol-6-yl)pyrimidin-2-yl)amino)pyridin-3-yl)methyl)piperazine-1-carbonyl)piperidin-1-yl)phenyl)amino) piperidine-2,6-dione]
[1]
  DC50: 0.05 to 0.2 µM
  Dmax: > 80%
[2]; [4]
  IC50: 0.05 to 0.2 µM
[3]
  DC50: 0.05 to 0.2 µM
  Dmax: > 60%

## Cc1nc2c(F)cc(-c3nc(Nc4ccc(CN5CCN(CC6CN(c7ccc(C(=O)NC8CCC(=O)NC8=O)cc7)C6)CC5)cn4)ncc3F)cc2n1C(C)C (centres unmarked) [Compound 133, N-(2,6-dioxopiperidin-3-yl)-4-(3-((4-((6-((5-fluoro-4-4-fluoro-1-isopropyl-2-methyl-1H-benzo[d]imidazol-6-yl)pyrimidin-2-ylamino)pyridin-3-yl)methyl)piperazin-1-yl)methyl)azetidin-1-yl)benzamide]
[1]
  DC50: < 0.05 µM
  Dmax: > 80%
[2]; [4]
  IC50: < 0.05 µM
[3]
  DC50: < 0.05 µM
  Dmax: > 80%
